Numbers after ± are expanded uncertainties.
Legend:
[1] = Liquid, Closed cell (Static) method
[2] = refractive index (Na D-line) (dimensionless); details: 101.33 kPa, Liquid, Standard Abbe refractometry

SMILES: COC=O [methyl methanoate]
- vapor or sublimation pressure ([1]; 308.11 K): 114.7 ± 0.9 kPa
- vapor or sublimation pressure ([1]; 358.92 K): 550.4 ± 1.4 kPa
- refractive index ([2]; 293.1 K): 1.34359 ± 0.00076

SMILES: CO [methanol]
- vapor or sublimation pressure ([1]; 358.93 K): 221.4 ± 1 kPa
- refractive index ([2]; 293.1 K): 1.32853 ± 0.00073

SMILES: COC [dimethyl ether]
- vapor or sublimation pressure ([1]; 308.1 K): 788 ± 2 kPa
- vapor or sublimation pressure ([1]; 308.13 K): 785.2 ± 1.8 kPa
- vapor or sublimation pressure ([1]; 335.65 K): 1539.6 ± 2.6 kPa

SMILES: CCCCCC [hexane]
- vapor or sublimation pressure ([1]; 308.12 K): 30.8 ± 0.8 kPa
- vapor or sublimation pressure ([1]; 335.66 K): 83 ± 1 kPa
- refractive index ([2]; 298.1 K): 1.37514 ± 0.00073

Source: the NIST ThermoML archive (doi:10.1021/je200140m)
